Columns and labels:
mTOR = target: T1, mTOR (Homo sapiens, UniProt P42345); test: Biochemical assay for m-TOR by TR-FRET; conditions: read-out: EPK_mTOR/IC50
T1 construct: purchased Invitrogen Corporation (Carlsbad/Calif., USA) PV4753
Experimental: Biochemical Assay for m-TOR by TR-FRET.
Assay components are purchased from Invitrogen Corporation (Carlsbad/Calif., USA): GFP-4EBP1 (Cat. No. PV4759), Tb3+-α-p4EBP1 [pThr46] Antibody (Cat. No. PV4757), proprietary TR-FRET dilution buffer (Cat. No. PV3574), mTOR protein (Cat. No. PV4753).
50 nL of compound dilutions (final concentration of 10, 3.0, 1.0, 0.3, 0.1, 0.03, 0.01 and 0.003 μM) are dispensed onto black 384-well low volume non-binding polystyrene (Cat. No. NBS#3676, Corning, Lowell/Mass., USA). Then 5 μL of ATP (8 μM final concentration) and GFP-4EBP1 (400 nM final concentration) with 5 μL mTOR proteins (0.5 nM final concentration) are incubated at rt. The standard reaction buffer for the TR-FRET mTOR assay contained 50 mM HEPES pH 7.5, 10 mM MnCl2, 50 mM NaCl, 1 mM EGTA, 1 mM DTT. Reactions were stopped with 10 μL of a mixture of EDTA containing the Tb3+-α-p4EBP1[pT46] detection Ab (0.5 nM) in TR-FRET dilution buffer (proprietary to IVG). Plates are read 15 mins later in a Synergy2 reader using an integration time of 0.2 seconds and a delay of 0.1 seconds. Control for the 100% inhibition of the kinase reaction is performed by replacing the mTOR kinase by the standard reaction buffer. The control for the 0% inhibition is given by the solvent vehicle of the compounds (90% DMSO in H2O). A standard compound is used as a reference compound and included in all assay plates in the form of 16 dilution points in duplicate.

PI3K alfa = target: T2, PI3K alfa (Homo sapiens, UniProt P42336); test: PI3K alpha kinase assay (Kinase-Glo luminescence); type: biochemical; conditions: read-out: EPK_PI3Kalfa/IC50
T2 construct: His tag (C); made in house; host or cells: baculovirus BV1075; Tn5 (Trichoplusia ni) or TiniPro insect cells
T2 sequence (P42336 with tags, fused parts or gaps limits assumed): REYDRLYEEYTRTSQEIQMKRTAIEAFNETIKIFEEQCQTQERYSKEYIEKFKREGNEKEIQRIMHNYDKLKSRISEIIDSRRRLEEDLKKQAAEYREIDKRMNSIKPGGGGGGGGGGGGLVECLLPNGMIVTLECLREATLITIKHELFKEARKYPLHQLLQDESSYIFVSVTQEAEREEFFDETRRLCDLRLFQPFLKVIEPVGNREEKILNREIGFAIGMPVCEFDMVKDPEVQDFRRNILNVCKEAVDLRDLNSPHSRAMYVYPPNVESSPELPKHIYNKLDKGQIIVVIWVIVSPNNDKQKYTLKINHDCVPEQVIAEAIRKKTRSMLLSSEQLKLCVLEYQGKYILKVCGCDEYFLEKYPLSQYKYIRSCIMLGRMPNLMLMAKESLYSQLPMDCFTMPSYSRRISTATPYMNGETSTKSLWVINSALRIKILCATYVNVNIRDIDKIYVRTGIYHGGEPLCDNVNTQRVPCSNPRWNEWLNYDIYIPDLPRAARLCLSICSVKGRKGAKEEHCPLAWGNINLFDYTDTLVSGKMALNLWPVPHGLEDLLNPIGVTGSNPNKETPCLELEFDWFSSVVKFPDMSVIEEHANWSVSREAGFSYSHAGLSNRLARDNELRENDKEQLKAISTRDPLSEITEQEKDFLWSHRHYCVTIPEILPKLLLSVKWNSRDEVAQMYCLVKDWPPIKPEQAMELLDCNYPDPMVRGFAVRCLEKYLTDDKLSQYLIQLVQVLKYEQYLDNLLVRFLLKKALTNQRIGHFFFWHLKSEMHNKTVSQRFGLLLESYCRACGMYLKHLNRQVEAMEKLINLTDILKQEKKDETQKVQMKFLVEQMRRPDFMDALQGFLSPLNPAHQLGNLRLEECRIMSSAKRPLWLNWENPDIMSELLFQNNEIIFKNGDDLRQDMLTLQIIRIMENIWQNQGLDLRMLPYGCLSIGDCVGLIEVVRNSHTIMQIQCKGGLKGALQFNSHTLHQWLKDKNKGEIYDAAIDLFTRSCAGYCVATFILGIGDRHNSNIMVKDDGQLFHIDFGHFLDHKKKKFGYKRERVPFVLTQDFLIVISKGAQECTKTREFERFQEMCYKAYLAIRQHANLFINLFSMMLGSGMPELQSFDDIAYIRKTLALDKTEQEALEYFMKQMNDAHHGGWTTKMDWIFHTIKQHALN
Experimental: (§1) In a more preferred assay, the kinase reaction is performed in a final volume of 10 μL per well of a low volume non binding CORNING, 384 well black plate (Cat. No. #3676). The final concentrations of ATP and phosphatidyl inositol (PI) in the assay are 1 μM and 10 μg/mL respectively. The reaction is started by the addition of ATP.
(§2) The components of the assay are added per well as follows:
(§3) 50 nL test compounds in 90% DMSO per well, in columns 1-20, 8 concentrations (⅓ and 1/3.33 serial dilution step) in single. • Low control: […] of 90% DMSO in half the wells of columns 23-24 (0.45% in final). • High control: 50 nL of reference compound (e.g. compound of Example 7 in WO 2006/122806) in the other half of columns 23-24 (2.5 μM in final). • Standard: 50 nL of reference compound as just mentioned diluted as the test compounds in columns 21-22 • 20 mL ‘buffer’ are prepared per assay: • 200 μL of 1M TRIS HCl pH7.5 (10 mM in final) • 60 μL of 1M MgCl2 (3 mM in final) • 500 μL of 2M NaCl (50 mM in final) • 100 μL of 10% CHAPS (0.05% in final) • 200 μL of 100 mM DTT (1 mM in final) • 18.94 mL of nanopure water • 10 mL ‘PI’ are prepared per assay: • 200 μL of 1 mg/ml L-alpha-Phosphatidylinositol (Liver Bovine, Avanti Polar Lipids Cat. No. 840042C MW=909.12) prepared in 3% OctylGlucoside (10 μg/ml in final) • 9.8 mL of ‘buffer’ • 10 mL ‘ATP’ are prepared per assay: • 6.7 μL of 3 mM stock of ATP giving a final concentration of 1 μM per well • 10 mL of ‘buffer’ • 2.5 mL of each PI3K construct are prepared per assay in ‘PI’ with the following final concentration: • 10 nM PI3K alfa EMV B1075 • 25 nM beta EMV BV949 • 10 nM delta EMV BV1060 • 150 nM gamma EMV BV950 • 5 μL of ‘PI/PI3K’ are added per well. • 5 μl ‘ATP’ are added per well to start the reaction. • The plates are then incubated at room temperature for 60 minutes (alfa, beta, delta) or 120 minutes (gamma). • The reaction is terminated by the addition of 10 μL Kinase-Glo (Promega Cat. No. #6714). • The assay plates are read after 10 minutes in Synergy 2 reader (BioTek, Vermont USA) with an integration time of 100 milliseconds and sensitivity set to 191. • Output: The High control is around 60′000 counts and the Low control is 30′000 or lower • This luminescence assay gives a useful Z′ ratio between 0.4 and 0.7
Two different constructs, BV 1052 and BV 1075, are used to generate the PI3 Kinase α proteins for compound screening.
PI3K alpha is purified in three chromatographic steps: immobilized metal affinity chromatography on a Ni Sepharose resin (GE Healthcare, belonging to General Electric Company, Fairfield, Conn., USA), gel filtration utilizing a Superdex 200 26/60 column (GE Healthcare), and finally a cation exchange step on a SP-XL column (GE Healthcare). All buffers are chilled to 4° C. and lysis is performed chilled on ice. Column fractionation is performed rapidly at room temperature.
(§4) IC50 is determined by a four parameter curve fitting routine that comes along with “excel fit”. A 4 Parameter logistic equation is used to calculate IC50 values (IDBS XLfit) of the percentage inhibition of each compound at 8 concentrations (usually 10, 3.0, 1.0, 0.3, 0.1, 0.030, 0.010 and 0.003 μM). Alternatively, IC50 values are calculated using idbsXLfit model 204, which is a 4 parameter logistic model.

PI3K beta = target: T3, PI3K beta (Homo sapiens, UniProt P42338); test: PI3K beta kinase assay (Kinase-Glo luminescence); type: biochemical; conditions: read-out: EPK_PI3Kbeta/IC50
T3 construct: for the full-length p110-b subunit are generated and fused by overlapping PCR; His tag (C); made in house; host or cells: baculovirus BV949; Tn5 (Trichoplusia ni) or TiniPro insect cells
T3 sequence (P42338 with tags, fused parts or gaps limits assumed): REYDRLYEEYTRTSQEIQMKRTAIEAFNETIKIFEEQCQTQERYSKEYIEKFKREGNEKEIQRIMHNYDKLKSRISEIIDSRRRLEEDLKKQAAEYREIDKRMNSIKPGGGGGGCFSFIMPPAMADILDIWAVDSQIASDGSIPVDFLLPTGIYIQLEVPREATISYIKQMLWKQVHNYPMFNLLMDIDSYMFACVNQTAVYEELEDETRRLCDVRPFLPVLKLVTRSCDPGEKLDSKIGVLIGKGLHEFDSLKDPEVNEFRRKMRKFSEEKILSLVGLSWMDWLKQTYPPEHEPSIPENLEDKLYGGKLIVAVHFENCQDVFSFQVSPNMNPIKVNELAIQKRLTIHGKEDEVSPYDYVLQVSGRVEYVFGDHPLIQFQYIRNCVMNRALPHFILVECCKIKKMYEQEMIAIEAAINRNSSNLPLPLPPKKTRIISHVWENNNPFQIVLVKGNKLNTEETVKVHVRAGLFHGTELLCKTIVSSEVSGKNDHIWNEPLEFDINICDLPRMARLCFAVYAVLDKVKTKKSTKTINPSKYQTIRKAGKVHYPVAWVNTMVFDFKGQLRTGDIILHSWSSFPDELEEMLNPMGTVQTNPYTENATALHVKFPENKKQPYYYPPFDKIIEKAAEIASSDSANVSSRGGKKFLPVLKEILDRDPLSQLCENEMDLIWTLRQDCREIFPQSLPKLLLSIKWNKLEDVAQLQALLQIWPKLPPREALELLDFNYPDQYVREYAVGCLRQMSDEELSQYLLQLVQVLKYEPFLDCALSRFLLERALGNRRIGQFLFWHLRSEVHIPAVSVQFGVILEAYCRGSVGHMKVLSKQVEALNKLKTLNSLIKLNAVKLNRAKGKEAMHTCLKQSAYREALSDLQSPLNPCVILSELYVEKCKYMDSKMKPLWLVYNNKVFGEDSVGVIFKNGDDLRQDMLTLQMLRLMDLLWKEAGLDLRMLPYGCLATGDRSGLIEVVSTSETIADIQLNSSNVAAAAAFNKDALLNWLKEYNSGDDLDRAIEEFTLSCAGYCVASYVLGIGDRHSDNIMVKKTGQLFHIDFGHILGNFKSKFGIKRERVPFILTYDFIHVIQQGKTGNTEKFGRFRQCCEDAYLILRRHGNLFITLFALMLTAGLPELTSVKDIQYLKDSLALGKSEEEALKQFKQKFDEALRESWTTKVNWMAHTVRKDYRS
Experimental: as §1, §2, §3
PI3Kβ BV-949 p85(iSH2)-Gly linker-r 110b(full-length)-C-term His Tag
PI3K beta is purified in two chromatographic steps: immobilized metal affinity chromatography (IMAC) on a Ni Sepharose resin (GE Healthcare) and gel filtration (GFC) utilizing a Superdex 200 26/60 column (GE Healthcare). All buffers are chilled to 4° C. and lysis is performed chilled on ice. Column fractionation is performed rapidly at room temperature.
as §4

PI3K delta = target: T4, PI3K delta (Homo sapiens, UniProt O00329); test: PI3K delta kinase assay (Kinase-Glo luminescence); type: biochemical; conditions: read-out: EPK_PI3Kdelta/IC50
T4 construct: for the full-length p110-d subunit are generated and fused by overlapping PCR; His tag (C); made in house; host or cells: baculovirus BV1060; Tn5 (Trichoplusia ni) or TiniPro insect cells
T4 sequence (O00329 with tags, fused parts or gaps limits assumed): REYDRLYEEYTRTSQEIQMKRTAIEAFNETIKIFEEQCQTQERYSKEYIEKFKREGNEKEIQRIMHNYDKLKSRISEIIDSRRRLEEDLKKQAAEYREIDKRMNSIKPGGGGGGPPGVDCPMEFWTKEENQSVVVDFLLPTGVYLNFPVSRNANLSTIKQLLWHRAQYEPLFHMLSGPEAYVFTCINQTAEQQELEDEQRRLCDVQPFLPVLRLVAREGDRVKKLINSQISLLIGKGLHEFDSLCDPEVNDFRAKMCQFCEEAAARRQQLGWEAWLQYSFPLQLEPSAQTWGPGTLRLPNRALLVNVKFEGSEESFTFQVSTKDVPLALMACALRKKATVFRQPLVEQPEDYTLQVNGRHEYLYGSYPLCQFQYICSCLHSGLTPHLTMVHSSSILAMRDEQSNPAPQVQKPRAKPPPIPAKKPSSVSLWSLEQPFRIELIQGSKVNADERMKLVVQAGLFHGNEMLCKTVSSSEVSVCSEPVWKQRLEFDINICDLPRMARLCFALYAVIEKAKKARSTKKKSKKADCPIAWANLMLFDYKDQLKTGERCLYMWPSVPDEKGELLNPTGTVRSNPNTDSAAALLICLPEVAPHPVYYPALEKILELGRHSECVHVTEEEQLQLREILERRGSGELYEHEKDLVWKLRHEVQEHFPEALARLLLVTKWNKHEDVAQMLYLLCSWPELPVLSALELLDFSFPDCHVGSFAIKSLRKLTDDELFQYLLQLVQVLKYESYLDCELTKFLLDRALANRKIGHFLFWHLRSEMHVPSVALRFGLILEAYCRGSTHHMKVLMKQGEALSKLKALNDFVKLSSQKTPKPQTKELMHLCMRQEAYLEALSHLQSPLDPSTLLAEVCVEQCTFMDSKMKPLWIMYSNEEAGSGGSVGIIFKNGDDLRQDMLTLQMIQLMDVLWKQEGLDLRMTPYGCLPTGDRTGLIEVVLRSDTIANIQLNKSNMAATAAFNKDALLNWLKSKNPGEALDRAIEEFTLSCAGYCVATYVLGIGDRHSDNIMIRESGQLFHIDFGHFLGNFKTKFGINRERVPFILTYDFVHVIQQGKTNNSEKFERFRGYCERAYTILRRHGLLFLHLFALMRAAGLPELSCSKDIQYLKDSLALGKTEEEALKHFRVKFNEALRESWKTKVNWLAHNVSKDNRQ
Experimental: as §1, §2, §3
PI3Kδ BV-1060 p85(iSH2)-Gly Linker-p110d(Full-Length)-C-Term His Tag
PI3K delta is purified in three chromatographic steps: immobilized metal affinity chromatography on a Ni Sepharose resin (GE Healthcare), gel filtration utilizing a Superdex 200 26/60 column (GE Healthcare), and finally a anion exchange step on a Q-HP column (GE Healthcare). All buffers are chilled to 4° C. and lysis is performed chilled on ice. Column fractionation is performed rapidly at room temperature. Typically frozen insect cells are lysed in a hypertonic lysis buffer and applied to a prepared IMAC column. The resin is washed with 3-5 column volumes of lysis buffer, followed by 3-5 column volumes wash buffer containing 45 mM imidazole, and the target protein is then eluted with a buffer containing 250 mM imidazole. Fractions are analyzed by Coomassie stained SDS-PAGE gels, and fractions containing the target protein are pooled and applied to a prepared GFC column. Fractions from the GFC column are analyzed by Coomassie stained SDS-PAGE gels, and fractions containing the target protein are pooled. The pool from the GFC column is diluted into a low salt buffer and applied to a prepared Q-HP column. The column is washed with low salt buffer until a stable A280 baseline absorbance is achieved, and eluted using a 20 column volume gradient from 0 mM NaCl to 500 mM NaCl. Again, fractions from the Q-HP column are analyzed by Coomassie stained SDS-PAGE gels, and fractions containing the target protein are pooled. The final pool is dialyzed into a storage buffer containing 50% glycerol and stored at −20° C. The final pool is assayed for activity in the phosphoinostitol kinase assay. […]

T1 sequence (P42345 1360-2549 limits assumed): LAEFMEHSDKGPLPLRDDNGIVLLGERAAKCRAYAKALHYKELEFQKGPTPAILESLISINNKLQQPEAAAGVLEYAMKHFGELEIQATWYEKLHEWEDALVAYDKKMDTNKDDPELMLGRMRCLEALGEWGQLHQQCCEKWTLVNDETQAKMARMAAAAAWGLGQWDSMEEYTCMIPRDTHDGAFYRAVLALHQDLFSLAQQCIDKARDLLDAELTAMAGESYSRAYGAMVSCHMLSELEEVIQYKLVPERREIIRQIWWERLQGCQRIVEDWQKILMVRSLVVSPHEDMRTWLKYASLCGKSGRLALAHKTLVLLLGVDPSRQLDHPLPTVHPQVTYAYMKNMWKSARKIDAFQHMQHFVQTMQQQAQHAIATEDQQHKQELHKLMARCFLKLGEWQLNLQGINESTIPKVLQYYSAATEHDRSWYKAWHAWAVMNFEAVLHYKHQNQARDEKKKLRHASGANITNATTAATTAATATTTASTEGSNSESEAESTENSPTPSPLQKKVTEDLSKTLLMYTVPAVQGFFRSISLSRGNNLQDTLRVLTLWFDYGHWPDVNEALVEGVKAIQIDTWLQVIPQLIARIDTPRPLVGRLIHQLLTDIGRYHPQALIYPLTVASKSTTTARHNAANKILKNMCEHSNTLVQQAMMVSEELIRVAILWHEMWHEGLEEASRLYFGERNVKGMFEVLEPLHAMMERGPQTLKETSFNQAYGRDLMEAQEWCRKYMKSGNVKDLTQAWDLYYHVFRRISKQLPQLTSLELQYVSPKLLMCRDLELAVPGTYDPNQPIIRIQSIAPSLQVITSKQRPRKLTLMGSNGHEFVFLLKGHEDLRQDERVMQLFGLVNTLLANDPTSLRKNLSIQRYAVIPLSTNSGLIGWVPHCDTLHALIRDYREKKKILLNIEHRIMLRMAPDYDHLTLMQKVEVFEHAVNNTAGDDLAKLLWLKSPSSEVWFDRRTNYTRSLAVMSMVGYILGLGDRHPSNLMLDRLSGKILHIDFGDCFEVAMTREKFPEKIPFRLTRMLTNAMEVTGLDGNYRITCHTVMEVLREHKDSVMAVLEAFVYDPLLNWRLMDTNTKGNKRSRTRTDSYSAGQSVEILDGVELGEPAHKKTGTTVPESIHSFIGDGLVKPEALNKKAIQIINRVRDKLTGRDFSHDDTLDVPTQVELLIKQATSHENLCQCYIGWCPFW

| SMILES | IC50 (mTOR) | IC50 (PI3K alfa) | IC50 (PI3K beta) | IC50 (PI3K delta) |
| --- | --- | --- | --- | --- |
| CNc1ncc(-c2ccc3ncc4c(c3c2)n(-c2ccc(C(C)(C)O)nc2C)c(=O)n4C)cn1 [Example 31.2, 1-[6-(1-Hydroxy-1-methyl-ethyl)-2-methyl-pyridin-3-yl]-3-methyl-8-(2-methylamino-pyrimidin-5-yl)-1,3-dihydro-imidazo[4,5-c]quinolin-2-one] | 6 nM | 26 nM | 105 nM | 11 nM |
| CCNc1ncc(-c2ccc3ncc4c(c3c2)n(-c2ccc(N3CC[C@H](O)C3)nc2C)c(=O)n4C)c(OC)n1 [Example 32.9, 8-(2-Ethylamino-4-methoxy-pyrimidin-5-yl)-1-[6-((S)-3-hydroxy-pyrrolidin-1-yl)-2-methyl-pyridin-3-yl]-3-methyl-1,3-dihydro-imidazo[4,5-c]quinolin-2-one] | 21 nM | 27 nM | 385 nM | 21 nM |
| CCNc1ncc(-c2ccc3ncc4c(c3c2)n(-c2ccc(F)nc2C)c(=O)n4C)cn1 [Example 7.18, 8-(2-Ethylamino-pyrimidin-5-yl)-1-(6-fluoro-2-methyl-pyridin-3-yl)-3-methyl-1,3-dihydro-imidazo[4,5-c]quinolin-2-one] | 36 nM | 65 nM | 321 nM | 28 nM |
| CCNc1ncc(-c2ccc3ncc4c(c3c2)n(-c2ccc(N3CC[C@H](O)C3)nc2C)c(=O)n4C)cn1 [Example 32.10, 8-(2-Ethylamino-pyrimidin-5-yl)-1-[6-((S)-3-hydroxy-pyrrolidin-1-yl)-2-methyl-pyridin-3-yl]-3-methyl-1,3-dihydro-imidazo[4,5-c]quinolin-2-one] | 15 nM | 44 nM | 401 nM | 20 nM |
| CCNc1ncc(-c2ccc3ncc4c(c3c2)n(-c2ccc(N3CC(O)C3)nc2C)c(=O)n4C)cn1 [Example 29.7, 8-(2-Ethylamino-pyrimidin-5-yl)-1-[6-(3-hydroxy-azetidin-1-yl)-2-methyl-pyridin-3-yl]-3-methyl-1,3-dihydro-imidazo[4,5-c]quinolin-2-one] | 8 nM | 49 nM | 339 nM | 24 nM |
| COCc1cc(-c2ccc3ncc4c(c3c2)n(-c2ccc(C(F)(F)F)nc2C)c(=O)n4C)cnc1N [Example 33.3, 8-(6-Amino-5-methoxymethyl-pyridin-3-yl)-3-methyl-1-(2-methyl-6-trifluoromethyl-pyridin-3-yl)-1,3-dihydro-imidazo[4,5-c]quinolin-2-one] | 60 nM | 12 nM | 22 nM | 7 nM |

More lines, now with the values ahead:

| IC50 (mTOR) | IC50 (PI3K alfa) | IC50 (PI3K beta) | IC50 (PI3K delta) | SMILES |
| --- | --- | --- | --- | --- |
| 66 nM | 39 nM | 207 nM | 21 nM | Cc1nc(N2CC(F)(F)C(F)(F)C2)ccc1-n1c(=O)n(C)c2cnc3ccc(-c4cnc(N)c(CO)c4)cc3c21 [Example 35.4, 8-(6-Amino-5-hydroxymethyl-pyridin-3-yl)-3-methyl-1-[2-methyl-6-(3,3,4,4-tetrafluoro-pyrrolidin-1-yl)-pyridin-3-yl]-1,3-dihydro-imidazo[4,5-c]quinolin-2-one] |
| 70 nM | 27 nM | 62 nM | 10 nM | CNc1ncc(-c2ccc3ncc4c(c3c2)n(-c2ccc(C(F)(F)F)nc2C)c(=O)n4C)cc1COC [Example 33.6, 8-(5-Methoxymethyl-6-methylamino-pyridin-3-yl)-3-methyl-1-(2-methyl-6-trifluoromethyl-pyridin-3-yl)-1,3-dihydro-imidazo[4,5-c]quinolin-2-one] |
| 11 nM | 45 nM | 416 nM | 18 nM | CCNc1ncc(-c2ccc3ncc4c(c3c2)n(-c2ccc(N3CC[C@@H](O)C3)nc2C)c(=O)n4C)cn1 [Example 34.3, 8-(2-Ethylamino-pyrimidin-5-yl)-1-[6-((R)-3-hydroxy-pyrrolidin-1-yl)-2-methyl-pyridin-3-yl]-3-methyl-1,3-dihydro-imidazo[4,5-c]quinolin-2-one] |
